Biological target: T1, β-xylosidase (SSO3032) (Saccharolobus solfataricus, UniProt Q97UI4)
T1 construct: full gene cloned in pSVAmalFX-Nt6H (His6 tag)
Experiment: colorimetric pNP release at […] nm
Format: biochemical
Conditions: 1 mM pNPX, 50 mM sodium acetate pH 6.0, 90 °C, 10 min

T1 sequence (Q97UI4 entry or part of it): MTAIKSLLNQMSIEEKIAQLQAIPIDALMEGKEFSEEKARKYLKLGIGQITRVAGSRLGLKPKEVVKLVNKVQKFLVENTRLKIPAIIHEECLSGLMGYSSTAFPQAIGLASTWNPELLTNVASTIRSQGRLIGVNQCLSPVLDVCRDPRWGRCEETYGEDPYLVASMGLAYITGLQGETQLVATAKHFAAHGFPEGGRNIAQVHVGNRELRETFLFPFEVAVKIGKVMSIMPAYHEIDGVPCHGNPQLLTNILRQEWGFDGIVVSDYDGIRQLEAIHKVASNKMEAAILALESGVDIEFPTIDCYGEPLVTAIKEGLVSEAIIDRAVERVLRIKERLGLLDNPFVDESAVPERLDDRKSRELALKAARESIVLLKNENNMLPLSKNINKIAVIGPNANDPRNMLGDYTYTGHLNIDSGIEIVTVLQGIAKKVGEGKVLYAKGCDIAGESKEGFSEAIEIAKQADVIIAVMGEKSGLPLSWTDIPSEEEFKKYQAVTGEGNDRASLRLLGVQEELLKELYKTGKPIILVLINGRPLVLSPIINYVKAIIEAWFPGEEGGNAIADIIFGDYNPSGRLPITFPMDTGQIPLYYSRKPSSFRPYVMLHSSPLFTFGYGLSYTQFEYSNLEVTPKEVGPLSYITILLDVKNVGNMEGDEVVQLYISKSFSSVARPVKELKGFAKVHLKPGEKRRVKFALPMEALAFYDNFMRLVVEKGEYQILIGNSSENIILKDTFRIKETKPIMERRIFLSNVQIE

O=[N+]([O-])c1ccc(O[C@@H]2OC[C@@H](O)[C@H](O)[C@H]2O)cc1 [pNPX]
colorimetric pNP release at 420 nm: performed with 4-nitrophenol-β-D-xylopyranoside (pNPX) as a substrate

From PMC9628888, “Engineering of Sulfolobus acidocaldarius for Hemicellulosic Biomass Utilization” (Journal of Microbiology and Biotechnology, 2022)
